Read-outs that look alike come from different tables or passages of the source. Where only a bound is given, the exact number is not on record here.

Here are results for ten compounds from US9629822B2, “Flavonoid based antiviral targets” (UNIVERSITY OF CENTRAL FLORIDA RESEARCH FOUNDATION, INC., priority 2012, dated 2017).

Data set [1] has as its target T1, US28 receptor (Human cytomegalovirus, UniProt P69332).
T1 construct: expressed in transfected cells; host or cells: HEK 293T cells, transiently transfected
Particulars: same Elk1 reporter assay, from ref 13; cited from earlier work.

In data set [2] the test system is mock transfected 293T HEK cells. The data set can be described thus: PathDetect Elk1 luminescence in mock transfected (empty pcDNA3 vector) 293T HEK cells, off-target effect. To be noted: 10 μM vs 1% DMSO control, Equation 1; for activation at 10 µM: Homo sapiens, read-out: Effect(%) on mock cells with each drug at 10 μM. The format is cell-based, human. The protocol: As a control, the empty pcDNA3 plasmid vector and the components of PathDetect system were also used for mock transfection of 293T HEK cells. Controls containing 1% DMSO were run in parallel. The relative luminescence results found with mock transfected 293T HEK cells treated with 10 μM drug and the untreated 1% DMSO control were compared via the following Equation 1. % Effect on mock cells=(100%×(mock cell luminescence/DMSO control luminescence))−100% Equation (1)
This equation was derived in order to assess the net effect each compound had on non-US28 containing HEK cells transfected via the same protocol. These control experiments were critical as they provided a method to address off target effects such as compound toxicity, which could give rise to false positives in the PathDetect assay.
Compounds, which had no off-target effects, gave nearly identical luminescence values in both the mock cells and the 1% DMSO control (i.e., a mock cell luminescence/DMSO control luminescence ratio of 1) and a net effect of 0% via Equation 1 (e.g., 9j: 0% in Table 1). In contrast, compounds that were stimulatory to the treated HEK cells gave higher mock cell luminescence than the DMSO control, a ratio >1, and a net positive value in Equation 1 for the % effect on mock cells (e.g., 8f: 290%). On the other hand, compounds that were intrinsically toxic gave lower luminescence in the treated mock cells than the DMSO control, a ratio below 1, and a net negative value for the % effect on mock cells (e.g., 8d: ˜42%).
The efficacy of each compound on the US28 receptor was investigated in luciferase based reporter gene assay PathDetect trans Elk1 (Agilent, Stratagene)^23 as described previously.^13 Briefly, the human embryonic kidney (HEK) 293T cells were transiently-transfected with 0.1 μg Elk1, 5 μg Luc, and 5 μg of US28 vector or empty pcDNA3 vector (mock cells). Five hours after transfection, the cells were washed with DMEM containing 1% FBS, harvested, seeded in a white half-area 96-well plate (20,000 cells/well) and incubated with the indicated concentrations of test compounds. The incubation buffer consisted of DMEM, 1% FBS, 2 mM L-glutamine, 1% penicillin-streptomycin and 1% DMSO. The cells were incubated at 37° C. in the humid atmosphere with 5% CO2 for an additional 20-24 hours. The luciferase substrate BrightGlo (Promega) was used according to the manufacturer's instruction. The luminescence intensity was acquired using microplate reader Victor3V (Perkin-Elmer). The basal luminescence of mock transfected cells was approximately 500 RLU and the basal luminescence of US28-transfected cells was 4-5-fold higher (2000-2500 RLU). As the inhibitors gave differential responses in terms of their ability to reduce US 28 mediated signaling, their relative EC50 values were determined by dosing the US-28 transfected HEK cells with increasing concentrations of each compound. In this case, the EC50 value is the concentration of the compound needed to provoke a response halfway between the compound's maximal response (change in luminescence) and the no-compound control in the same US-28 transfected cell line. A plot of relative luminescence versus log of the compound concentration provided a dose-response curve from which the % efficacy was derived via non-linear regression methods using the algorithms in PRISM 5.0 (GraphPad Software, San Diego, Calif.).

Data set [3] concerns the target T1, US28 receptor. The data set can be described thus: PathDetect trans Elk1 luciferase reporter gene assay in US28-transfected 293T HEK cells. Type of data set: cell-based, Human Cytomegalovirus (HCMV). Particulars: for EC50: 293T HEK cells transiently expressing US28, Elk1 reporter, NE = no effect when tested at 10 μM of compound; for Efficacy(%): maximum intrinsic activity from dose-response curve; for Efficacy(%) / Emax: negative = inverse agonism; for Emax: read-out: Efficacy(%), maximum intrinsic activity from dose-response curve; for type of activity on the US28 receptor (agonist / inverse agonist / none), in words: Elk1 reporter, US28-transfected HEK cells. The method in brief: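 HEK293T cells transiently transfected with Elk1, Luc and US28 vector (empty pcDNA3 for mock) were dosed with compounds in DMEM/1% FBS with 1% DMSO for 20-24 h at 37° C. Bright-Glo luminescence decrease was read; EC50 is halfway between maximal response and no-compound control, by non-linear regression.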
(In general: A reporter such as luciferase makes a cellular process visible.)

Data set [4] is described as follows: TZMbI assay for cell safety (cell viability and growth, CytoTox Glo). Particulars: human, TZMbI cells, 10 μM, Experiment 1A; read-out: % decrease in viability compared to 0.1% DMSO vehicle based on viable cell luminescence. On the procedure: Assays were performed below in accordance with the procedures set forth in The Journal of Immunology, 2006, 176, pp. 6900-905; AIDS Research and Human Retroviruses, 2004, 20:11, pp. 1157-1665.^32,33 TZMbI assays for cell safety were performed to identify potential anti-viral compounds. TZMbI assays for cell safety were performed to identify potential anti-viral compounds per the methods.

A further data set relates to HIV-1 BaL. Briefly: Anti-HIV assay (luciferase, HIV-1 BaL infection). Type of data set: cell-based. Particulars: 10 μM, Experiment 1B, 2 ng/mL p24 HIV-1 BaL; for inhibition at 10 µM: Human immunodeficiency virus 1, BAL. Summed up: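 Cells infected with HIV-1 BaL at 2 ng/mL p24 (MOI approx 0.02) in compound presence. Infection read out by luciferase.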
The test system of another data set is CHO cells. Briefly: CHO cell toxicity, MTS assay, 48 h. Type of data set: cell-based, Chinese hamster. To be noted: Cricetulus griseus, CHO, 37° C., MTS reagent, read-out: CHO 48 h IC50 value. Summed up: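 CHO cells plated at 10,000 cells/mL, incubated overnight, then exposed to drug (final DMSO <1%) for 48 h at 37 °C, 5% CO2, in triplicate. MTS added for a further 4 h; absorbance read at 490 nm. IC50 taken from relative A490 versus drug concentration.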
(In general: Tetrazolium assays rely on reduction of a dye to a coloured formazan, in cell work by metabolically active cells.)

T1 sequence (P69332 whole entry): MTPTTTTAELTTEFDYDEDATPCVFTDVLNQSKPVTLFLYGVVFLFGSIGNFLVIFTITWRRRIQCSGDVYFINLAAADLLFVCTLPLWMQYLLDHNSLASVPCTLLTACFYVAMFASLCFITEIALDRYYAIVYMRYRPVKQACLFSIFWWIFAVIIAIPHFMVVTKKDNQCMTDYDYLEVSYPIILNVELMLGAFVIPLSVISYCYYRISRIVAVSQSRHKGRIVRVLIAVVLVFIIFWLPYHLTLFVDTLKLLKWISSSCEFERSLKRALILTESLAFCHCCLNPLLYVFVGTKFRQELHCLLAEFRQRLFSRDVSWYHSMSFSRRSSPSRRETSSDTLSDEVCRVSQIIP

On to `N#CC(CCCN1CCC(O)(c2ccc(Cl)cc2)CC1)(c1ccccc1)c1ccccc1` [Compound 5a, VUF2274], for which, on US28 receptor [1], the EC50 (as a rule, the concentration giving half of the maximal effect) is 4.5 µM and the efficacy was about 22%.

With `CCOc1ccc(Cl)cc1/C=C/C(=O)c1ccccc1O` [Compound 8i, (E)-3-(5-chloro-2-ethoxyphenyl)-1-(2-hydroxyphenyl)prop-2-en-1-one], the melting point (as a rule, the temperature, or range, at which the solid turns liquid) lay in the range of 61 to 65 °C. In addition, in data set [2], the “Effect(%) on mock cells with each drug at 10 μM” value (from here on “Effect(%) on mock cells”) is recorded as 33% and the activation at 10 µM is 33%. This compound also returned an EC50 at US28 receptor [3] (EC50 (μM)) of 6.4 µM. At US28 receptor [3], the “Efficacy(%)” value is about 76% and the Emax was about 76%. In addition, the cytotoxicity at 10 μM in data set [4] is 87.1%. Moreover, in the data set with HIV-1 BaL, the “RLU (relative luciferase units)” value is 130.4 RLU and testing at 10 µM gave an inhibition of 86.2%. In addition, in the data set on CHO cells, the IC50 (in general, the midpoint of a concentration-inhibition curve) was 6.8 ± 0.9 µM.

The compound `COc1ccc(I)cc1/C=C/C(=O)c1ccccc1O` [Compound 8g, (E)-1-(2-hydroxyphenyl)-3-(5-iodo-2-methoxyphenyl)prop-2-en-1-one] showed a melting point of 107 to 109 °C. For the same compound, in data set [2], the “Effect(%) on mock cells” value came to 100% and the activation at 10 µM is 100%. The same compound came in with an EC50 at US28 receptor [3] (EC50 (μM)) of 5.5 µM. At US28 receptor [3], the “Efficacy(%)” value is listed as about 94% and the Emax was about 94%. In addition, the cytotoxicity at 10 μM in data set [4] is 99.7%. In the data set with HIV-1 BaL, the “RLU (relative luciferase units)” value came to 3.3 RLU and the inhibition (commonly the drop in the measured response relative to a control, in per cent) at 10 µM is 99.6%. In addition, the IC50 with CHO cells amounted to 6.7 ± 0.7 µM.

The compound `COc1cc(OC)c(/C=C/C(=O)c2ccccc2O)cc1Br` [Compound 8e, (E)-3-(5-bromo-2,4-dimethoxyphenyl)-1-(2-hydroxyphenyl)prop-2-en-1-one] gave a melting point of 153 to 157 °C. Further, the activation at 10 µM in data set [2] was found to be 5%. Moreover, the EC50 at US28 receptor [3] (EC50 (μM)) was 4.9 µM. In addition, the Emax at US28 receptor [3] was about 55%. Moreover, in data set [4], the cytotoxicity at 10 μM stood at 4.1%. Further, in the data set on HIV-1 BaL, the “RLU (relative luciferase units)” value is listed as 671.4 RLU and 10 µM produced 29% inhibition. For the same compound, the IC50 with CHO cells was determined as 16.9 ± 1.3 µM.

In the case of `COc1ccc(C)cc1/C=C/C(=O)c1ccccc1O` [Compound 8j, (E)-1-(2-hydroxyphenyl)-3-(2-methoxy-5-methylphenyl)prop-2-en-1-one], the melting point is 69 to 72 °C. The activation at 10 µM in data set [2] is -4%. Also, the “type of activity on the US28 receptor (agonist / inverse agonist / none), in words” value at US28 receptor [3] is “agonist activity”. Moreover, the Emax at 10 µM on US28 receptor [3] (read-out: Efficacy(%), 10 μM single concentration) turned out to be 52%. The cytotoxicity at 10 μM in data set [4] stood at 47%. Further, in the data set on HIV-1 BaL, the “RLU (relative luciferase units)” value is 345.7 RLU and the inhibition at 10 µM is 63.1%. In the data set on CHO cells, the IC50 amounted to 14.2 ± 2.7 µM.

Consider `COc1cc(OC)c(-c2oc3ccccc3c(=O)c2O)cc1Br` [Compound 9e, 2-(5-Bromo-2,4-dimethoxyphenyl)-3-hydroxy-4H-chromen-4-one], for which the melting point lay in the range of 196 to 201 °C. Also, the activation at 10 µM in data set [2] is -17%. In addition, the EC50 on US28 receptor [3] is over 10 µM. The cytotoxicity at 10 μM in data set [4] is -11.9%. Further, in the data set on HIV-1 BaL, the “RLU (relative luciferase units)” value came out at 693.9 RLU and the inhibition at 10 µM was 25.9%. In the data set on CHO cells, the IC50 was found to be 18.3 ± 2.5 µM.

`COc1ccc(Br)cc1-c1oc2cccc(OC)c2c(=O)c1O` [Compound 9f, 2-(5-Bromo-2-methoxyphenyl)-3-hydroxy-5-methoxy-4H-chromen-4-one] returned a melting point of 207 to 213 °C. In data set [2], the activation at 10 µM is -1%. The same compound returned an EC50 on US28 receptor [3] of over 10 µM. Further, the cytotoxicity at 10 μM in data set [4] was -0.2%. Further, in the data set on HIV-1 BaL, the “RLU (relative luciferase units)” value was found to be 528.5 RLU and testing at 10 µM gave an inhibition of 43.6%. Also, the IC50 with CHO cells came to 17.3 ± 1.9 µM.

For the compound `COc1ccc(C)cc1-c1oc2ccccc2c(=O)c1O` [Compound 9j, 3-hydroxy-2-(2-methoxy-5-methylphenyl)-4H-chromen-4-one], the melting point is 158 to 164 °C. In addition, in data set [2], the “Effect(%) on mock cells” value was 0% and the activation at 10 µM turned out to be 0%. This compound came in with an EC50 on US28 receptor [3] (EC50 (μM)) of 1.78 µM. Besides, at US28 receptor [3], the “type of activity on the US28 receptor (agonist / inverse agonist / none), in words” value is reported as “inhibited US28 receptor constitutive activity” and the Emax is -38%. The cytotoxicity at 10 μM in data set [4] worked out at 4.8%. In the data set with HIV-1 BaL, the “RLU (relative luciferase units)” value is given as 814.0 RLU and the inhibition at 10 µM is 13%. Moreover, in the data set on CHO cells, the IC50 worked out at 54.6 ± 4.2 µM.

Regarding `COc1ccc(I)cc1-c1oc2ccccc2c(=O)c1O` [Compound 9g, 3-Hydroxy-2-(5-iodo-2-methoxyphenyl)-4H-chromen-4-one], the melting point lay within 153 to 159 °C. In addition, the activation at 10 µM in data set [2] was -23%. This compound returned an EC50 at US28 receptor [3] of over 10 µM. For the same compound, the cytotoxicity at 10 μM in data set [4] amounted to 15.3%. For the same compound, in the data set with HIV-1 BaL, the “RLU (relative luciferase units)” value worked out at 358.6 RLU and the inhibition at 10 µM turned out to be 61.7%. Also, the IC50 in the data set with CHO cells was 17.9 ± 1.6 µM.

`COc1ccc(Cl)cc1C1CC(=O)c2ccccc2O1` (centres unmarked) [Compound 13h, 2-(5-Chloro-2-methoxyphenyl)chroman-4-one] yielded a melting point of 51 to 60 °C. Further, the activation at 10 µM in data set [2] is -14%. In addition, at US28 receptor [3], the half-maximal effective concentration (EC50) was over 10 µM and the “type of activity on the US28 receptor (agonist / inverse agonist / none), in words” value is given as “did not have any significant effect”. Besides, the concentration for a half-maximal effect (EC50) on US28 receptor [3] (EC50 (μM)) was over 10 µM.
